pIC50: −log10 of the molar value.
Key:
[1] = molecular target: T1, Amine oxidase [flavin-containing] B (Homo sapiens, UniProt P27338); assay: Inhibition of human recombinant MAOB at 1 mM by fluorimetric method; settings: 1000 µM
T1 sequence (P27338 whole entry): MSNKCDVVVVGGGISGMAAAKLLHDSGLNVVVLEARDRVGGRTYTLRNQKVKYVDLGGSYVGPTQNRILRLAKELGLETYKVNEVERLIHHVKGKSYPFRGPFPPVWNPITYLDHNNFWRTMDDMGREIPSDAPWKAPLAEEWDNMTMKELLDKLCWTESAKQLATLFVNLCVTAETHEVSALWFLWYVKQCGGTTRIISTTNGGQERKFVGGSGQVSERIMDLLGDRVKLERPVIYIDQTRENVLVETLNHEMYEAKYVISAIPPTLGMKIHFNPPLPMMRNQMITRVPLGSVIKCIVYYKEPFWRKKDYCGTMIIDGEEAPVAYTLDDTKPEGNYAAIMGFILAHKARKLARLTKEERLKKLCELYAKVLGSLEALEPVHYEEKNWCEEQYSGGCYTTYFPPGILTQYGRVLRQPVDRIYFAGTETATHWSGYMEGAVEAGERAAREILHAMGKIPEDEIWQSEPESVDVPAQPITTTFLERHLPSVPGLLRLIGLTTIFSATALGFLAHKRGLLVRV

Homo sapiens = organism: Homo sapiens; assay: Selectivity ratio of IC50 for human recombinant MAOA to IC50 for human recombinant MAOB
[2] = molecular target: T2, Amine oxidase [flavin-containing] A (Homo sapiens, UniProt P21397); assay: Inhibition of human recombinant MAOA by fluorimetric method
T2 sequence (P21397 whole entry): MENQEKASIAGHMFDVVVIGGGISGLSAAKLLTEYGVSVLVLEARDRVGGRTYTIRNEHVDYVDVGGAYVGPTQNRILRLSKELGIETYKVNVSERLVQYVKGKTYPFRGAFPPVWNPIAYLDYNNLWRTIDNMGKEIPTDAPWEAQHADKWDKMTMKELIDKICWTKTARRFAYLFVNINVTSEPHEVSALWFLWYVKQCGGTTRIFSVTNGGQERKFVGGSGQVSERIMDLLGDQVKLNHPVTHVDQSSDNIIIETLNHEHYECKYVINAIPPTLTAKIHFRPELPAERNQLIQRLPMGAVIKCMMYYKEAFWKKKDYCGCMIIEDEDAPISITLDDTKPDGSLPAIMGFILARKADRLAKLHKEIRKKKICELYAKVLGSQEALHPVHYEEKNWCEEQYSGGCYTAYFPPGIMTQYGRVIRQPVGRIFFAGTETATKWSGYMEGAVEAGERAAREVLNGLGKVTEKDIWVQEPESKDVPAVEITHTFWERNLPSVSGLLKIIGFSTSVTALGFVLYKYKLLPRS

[3] = molecular target: T1, Amine oxidase [flavin-containing] B; assay: Inhibition of human recombinant MAOB at 100 uM by fluorimetric method
[4] = molecular target: T1, Amine oxidase [flavin-containing] B; assay: Inhibition of human liver MAOB

Row | SMILES | Activity [1] | Ratio IC50 (Homo sapiens) | pIC50 [2] | Activity [3] | Activity [4]
1 | CC(=O)[C@@]1(O)CC[C@H]2[C@@H]3C[C@H](C)C4=CC(=O)CC[C@]4(C)[C@H]3CC[C@@]21C | Not Active | – | – | – | –
2 | COc1c(OCC(C)=O)ccc2cc(NC(C)=O)c(=O)oc12 | – | < 0.53 | 5.27 | Not Active | –
3 | O=c1ccc2cc3c4c(oc3cc2o1)CC4 | – | < 0.58 | 4.24 | Not Active | –
4 | O=C1CCCCC1Oc1ccc2ccc(=O)oc2c1 (stereo unspecified) | – | < 0.43 | 4.37 | Not Active | –
5 | O=NN(CCCl)C(=O)NC[C@@H](O)[C@H](O)CN(N=O)C(=O)NCCCl | Not Active | – | – | – | –
6 | O=c1oc2cc(O)ccc2c2c1CCC2 | – | < 0.48 | 4.32 | Not Active | –
7 | Cc1c(O)ccc2c3c(c(=O)oc12)CCCC3 | – | < 0.6 | 4.22 | Not Active | –
8 | CS(=O)(=O)OC[C@@H]1O[C@H]1[C@@H]1O[C@H]1COS(C)(=O)=O | Not Active | – | – | – | –
9 | COc1c(O)ccc2c3c(c(=O)oc12)CCC3 | – | < 0.63 | 4.20 | Not Active | –
10 | C=C1[C@@H](C)[C@H]2[C@H](Cc3ccccc3)NC(=O)[C@]23OC(=O)/C=C/[C@H](O)CCC[C@@H](C)C/C=C/[C@H]3[C@@H]1O [CYTOCHALASIN B] | Not Active | – | – | – | –
11 | NS(=O)(=O)c1cc(Cl)c(Cl)c(S(N)(=O)=O)c1 [DICHLORPHENAMIDE] | Not Active | – | – | – | –
12 | C1OC1CN1CCC(C2CCN(CC3CO3)CC2)CC1 (stereo unspecified) [EPIPROPIDINE] | Not Active | – | – | – | –
13 | CN1C[C@H](C(=O)N[C@]2(C)O[C@@]3(O)[C@@H]4CCCN4C(=O)[C@H](Cc4ccccc4)N3C2=O)C=C2c3cccc4[nH]cc(c34)C[C@H]21 [ERGOTAMINE] | Not Active | – | – | – | –
14 | CC1(C)O[C@@H]2C[C@H]3[C@@H]4C[C@H](F)C5=CC(=O)C=C[C@]5(C)[C@@]4(Cl)[C@@H](Cl)C[C@]3(C)[C@]2(C(=O)CO)O1 [FLUCLORONIDE] | – | – | – | Not Active | Not Active
15 | N=c1nc2n(cc1F)[C@@H]1O[C@H](CO)[C@@H](O)[C@@H]1O2 [FLUROCITABINE] | Not Active | – | – | – | –
16 | NC(N)=N/N=C/c1ccc([N+](=O)[O-])o1 [FURAGUANIDINE] | – | – | – | Not Active | Not Active
17 | O=[N+]([O-])c1ccc(/C=N/n2cnnc2)o1 [FURAZONAL] | – | – | – | Not Active | Not Active
18 | O=CN(O)CC(=O)O [HADACIDIN] | Not Active | – | – | – | –
19 | CC[C@H](c1ccc(OP(=O)(O)O)cc1)[C@@H](CC)c1ccc(OP(=O)(O)O)cc1 [HEXESTROL DIPHOSPHATE] | – | – | – | Not Active | Not Active
20 | CCCOC1=C(N2CC2)C(=O)C(OCCC)=C(N2CC2)C1=O [INPROQUONE] | Not Active | – | – | – | –
21 | O=[N+]([O-])O[C@@H]1CO[C@H]2[C@@H]1OC[C@@H]2O [ISOSORBIDE MONONITRATE] | – | – | – | Not Active | Not Active
22 | N[C@@H](Cc1ccc(O)c(O)c1)C(=O)O [LEVODOPA] | Not Active | – | – | – | –
23 | O=NN(CCCl)C(=O)NC1CCCCC1 [LOMUSTINE] | – | – | – | Not Active | Not Active
24 | O=C(Cc1ccc(N(CCCl)CCCl)cc1)NC[C@H](NC(=O)Cc1ccc(N(CCCl)CCCl)cc1)C(=O)O [LONIN 4] | – | – | – | Not Active | Not Active
25 | Cc1cccc(C)c1NC(=O)C1CCCCN1C (stereo unspecified) [MEPIVACAINE] | – | – | – | Not Active | Not Active
26 | CCCC(C)(COC(N)=O)COC(N)=O [MEPROBAMATE] | – | – | – | Not Active | Not Active
27 | CC(=O)Nc1c(I)c(C(=O)N[C@H]2C(O)O[C@H](CO)[C@@H](O)[C@@H]2O)c(I)c(N(C)C(C)=O)c1I (stereo partly specified) [METRIZAMIDE] | – | – | – | Not Active | Not Active
28 | Cc1ncc([N+](=O)[O-])n1CCO [METRONIDAZOLE] | – | – | – | Not Active | Not Active

Source: ChEMBL document CHEMBL1152129, “Quantitative structure-activity relationship and complex network approach to monoamine oxidase A and B inhibitors” (J Med Chem, 2008)
